Laboratory results reported in patent publication EP1222194B1, “7-ACYLAMINO-3-HETEROARYLTHIO-3-CEPHEM CARBOXYLIC ACID ANTIBIOTICS AND PRODRUGS THEREOF” (priority 1999, dated 2001).

System: S. aureus ATCC 13709 (Smith diffuse)
Assay: Murine model for lethal bacteremic peritonitis (septicemia)
Type: in vivo, mice
Conditions: Dose 5 mg/kg, subcutaneously at 0 and 2 hrs post-challenge
Description: 10 mice/group were injected intraperitoneally with 2.98x10^7 cfu S. aureus ATCC 13709 (Smith diffuse) and treated at 0 and 2hrs post-challenge with serial two-fold doses of new cephalosporin antibiotic, imipenem and vancomycin subcutaneously in order to determine the ED50. Male Swiss-Webster mice weighing originally 24.2 - 26.1 g were obtained from Charles Rivers Labs, Hollister, CA. Mice were housed 10 per cage and given free access to water and mouse chow.
Staphylococcus aureus ATCC 13709 (Smith diffuse) was grown overnight at 37 °C in Brain-heart Infusion broth (BHIB). The following morning, it was subcultured to fresh BHIB and incubated for 4-5h at 37 °C. The log-phase growth cells were washed once with physiological saline and adjusted to the desired concentration by correlation of absorbency at OD 600 nm with predetermined plate counts (NCCLS, 1994). The cell suspension was mixed with an equal volume of sterile 14% hog-gastric mucin (2). Inoculum was kept in an ice bath until used (<1h).
Mice were challenged via an injection of 0.5 mL bacterial suspension intraperitoneally. The bacterial challenge was 2.98 x 10^7 cfu/mouse.
Imipenem (Primaxin IV; Lot 7294A), vancomycin (Vancocin; Lot 8MU60W), and new cephalosporin antibiotic were prepared by serial two-fold dilutions to concentrations of 0.078 - 0.005 mg/mL, 1.2 - 0.075 mg/mL, 0.3 - 0.02 mg/mL, 0.3 - 0.02 mg/mL and 0.3 - 0.02 mg/mL respectively in sterile water (1). All antibiotics were administered subcutaneously in 0.1 mL volumes at 0 and 2 hours post-challenge. Concentrations of all compounds are based on the weight of the bioactive ingredients.
The 50% effective dose (ED50) was calculated by the probit method (3) utilizing a program entitled Probit (Nycomed-Salutar).

NCCSCc1ccncc1SC1=C(C(=O)O)N2C(=O)[C@@H](NC(=O)/C(=N\O)c3nc(N)sc3Cl)[C@H]2SC1 [Cmpd 3, (7R)-7-[(Z)-2-(2-amino-5-chlorothiazol-4-yl)-2-(hydroxyimino)acetamido]-3-[4-(2-aminoethylthiomethyl)pyrid-3-ylthio]-3-cephem-4-carboxylic acid]
Efficacy in murine septicemia %survival: 5/80%
